# Source: patent US20200205401A1, “LACTONES AS SOLVENTS IN AGROCHEMICAL FORMULATIONS” (priority 2017, published 2020)
# “And” between values parts separate entries of the source, which are not always exact repeats. Equal entries are not always repeated. Structures can show the parent of a compound that is named as a salt. Where two headings read alike, the source gives them in different places.
# What was measured:
# [1] = Azoxystrobin dissolved in organic liquid, diluted with 20 volumes of water, visual assessment of layers or crystals; assay type: physicochemical; conditions: water 20 times the solvent volume, assessed visually at 48 hours
# Experimental: Azoxystrobin was dissolved in a range of organic liquids, some of which are known to be solvents for agrochemicals, at room temperature and allowed to equilibrate. A measured quantity of water was added and each mixture was shaken. The volume of water was 20 times greater than the volume of organic liquid/solvent. After settling the samples were assessed as being either (i) split into two layers with no evidence of pesticide crystalisation, or (ii) identified as a single layer where the pesticide had precipitated out as crystals.
# Samples were assessed after 24 and 48 hours. The log P octanol values for the solvents have been taken from the literature or, where this value was not available, were estimated using the program ProPred™ (ICAS ProPred™, KT Consortium, DTU Kemiteknik, Lyngby, Denmark). Where values were estimated, a simple check was carried out using measuring cylinders with 50/50 volumes of octanol and water. Solvent was added to the cylinder until a clear observation of the effect of the addition was apparent.
# [2] = solvents of Table 2/3; literature, or estimated with ProPred where not available; cited from earlier work
# [3] = Azoxystrobin dissolved in organic liquid, diluted with 20 volumes of water, visual assessment of layers or crystals; assay type: physicochemical
# [4] = 5% w/w solutions of agrochemicals in solvent diluted into water 20:1, appearance; assay type: physicochemical; conditions: for APPEARANCE OF FORMULATION, Difenoconazole: 5% w/w difenoconazole in solvent; for APPEARANCE OF FORMULATION, Difenoconazole / APPEARANCE OF FORMULATION, Fludioxonil / APPEARANCE OF FORMULATION, Mandipropamid / APPEARANCE OF FORMULATION, Pinoxaden: diluted into water 20:1; for APPEARANCE OF FORMULATION, Fludioxonil: 5% w/w fludioxonil in solvent; for APPEARANCE OF FORMULATION, Mandipropamid: 5% w/w mandipropamid in solvent; for APPEARANCE OF FORMULATION, Pinoxaden: 5% w/w pinoxaden in solvent; for appearance with each of the agrochemical active ingredients: mandipropamid, fludioxonil, pinoxaden, difenoconazole, 5% w/w, diluted 20:1
# Experimental: In this example several pesticidally active agrochemical ingredients (mandipropamid, fludioxonil, pinoxaden, and difenoconazole) were dissolved in each of the three solvents to give solutions of 5% w/w. Each solution was then diluted into water to form a 20:1 mixture.
# [5] = 20° C.; cited from earlier work
# [6] = Aqueous solubility of gamma caprolactone by HPLC; assay type: physicochemical; conditions: calculated mean of a set of six measurements
# Experimental: The aqueous solubility of gamma caprolactone was measured using HPLC chromatography. Several samples of the lactone were equilibrated at room temperature with an equal volume of water. The samples were left for two weeks then analysed by HPLC.
# [7] = log P octanol by octanol saturated chromatography column; assay type: physicochemical; conditions: octanol/water (octanol saturated chromatography column); 25° C., pH 6.98; read-out: octanol water partition coefficient (log P octanol)
# From the text: Samples of gamma caprolactone were examined using an octanol saturated chromatography column.
Compound,APPEARANCE (azoxystrobin solution in solvent after addition of water) [1],logP octanol [2],also measured
Butylene carbonate,2 layer,1.21,–
CCCCOCC(C)O (stereo not drawn) [Propylene glycol n-butyl ether],2 layer,–,–
Diethylene carbonate,–,–,APPEARANCE (azoxystrobin solution in solvent after addition of water) [3]: 2 layer
O=C1CCCCCO1 [ε-Caprolactone],Crystallised,0.70,–
CCOP(=O)(OCC)OCC [Triethyl phosphate],Crystallised,0.28,–
COC(=O)C(C)O (stereo not drawn) [Methyl lactate],Crystallised,–,–
CC(=O)OCC(COC(C)=O)OC(C)=O [Triacetin],2 layer,–,–
CC(=O)OCC(C)OC(C)=O (stereo not drawn) [Propylene glycol diacetate],Crystallised,0.94,–
CC(=O)c1ccccc1 [Acetophenone],2 layer,–,–
Hexylene glycol,Crystallised,–,"APPEARANCE OF FORMULATION, Difenoconazole [4]: Crystallised; APPEARANCE OF FORMULATION, Fludioxonil [4]: Crystallised; APPEARANCE OF FORMULATION, Mandipropamid [4]: Crystallised; APPEARANCE OF FORMULATION, Pinoxaden [4]: Crystallised; appearance with each of the agrochemical active ingredients [4]: crystallisation; miscibility with water [5]: fully miscible"
"CCC1CCC(=O)O1 (stereo not drawn) [γ-Caprolactone, 5-ethyltetrahydrofuran-2-one]",–,–,"Aqueous solubility, Mean [6]: 10.93 % w/w and 11.01 % w/w; chromatographic logP [7]: 0.34; APPEARANCE OF FORMULATION, Difenoconazole [4]: 2 layers; APPEARANCE OF FORMULATION, Fludioxonil [4]: 2 layers; APPEARANCE OF FORMULATION, Mandipropamid [4]: 2 layer; APPEARANCE OF FORMULATION, Pinoxaden [4]: 2 layers; appearance with each of the agrochemical active ingredients [4]: two-layer system; appearance after further 100-fold dilution in water [3]: two layers still did not become miscible"
CCCOC(=O)C(C)O (stereo not drawn) [Propyl lactate],2 layer,–,–
CCCCOC(=O)c1ccccc1 [Butyl benzoate],2 layer,–,–
CCOC(=O)/C=C/C(=O)OCC [Diethyl fumarate],2 layer,–,–
CCCCCCOCCOCCO [Diethylene glycol hexyl ether],2 layer,2.16,–
OCCO [Ethylene glycol],–,–,APPEARANCE (azoxystrobin solution in solvent after addition of water) [3]: Crystallised
OCc1ccccc1 [Benzyl alcohol],2 layer,–,–
COC(C)COC(C)CO (stereo not drawn) [Dipropylene glycol monomethyl ether],Crystallised,–,–
CCCOC(=O)c1ccccc1 [Propyl benzoate],2 layer,–,–
CC(O)C(=O)N(C)C (stereo not drawn) [Dimethyl lactamide],Crystallised,−0.22,–
OC1CCCCC1 [Cyclohexanol],2 layer,–,–
COC(=O)c1ccccc1 [Methyl benzoate],2 layer,1.85,–
O=C1CCCO1 [γ-Butyrolactone],Crystallised,−0.60,–
O=C1CCCCO1 [δ-Valerolactone],Crystallised,−0.26,–
CC1CCC(=O)O1 (stereo not drawn) [γ-Valerolactone],Crystallised,0.21,–
